{"source": "patent US11535607B2", "about": "“Isoindolines as HDAC inhibitors” (Valo Health, Inc., priority 2018, dated 2022)", "molecular_target": "full-length human HDAC11 (Homo sapiens (Human), UniProt Q96DB2)", "sequence (Q96DB2 whole entry)": "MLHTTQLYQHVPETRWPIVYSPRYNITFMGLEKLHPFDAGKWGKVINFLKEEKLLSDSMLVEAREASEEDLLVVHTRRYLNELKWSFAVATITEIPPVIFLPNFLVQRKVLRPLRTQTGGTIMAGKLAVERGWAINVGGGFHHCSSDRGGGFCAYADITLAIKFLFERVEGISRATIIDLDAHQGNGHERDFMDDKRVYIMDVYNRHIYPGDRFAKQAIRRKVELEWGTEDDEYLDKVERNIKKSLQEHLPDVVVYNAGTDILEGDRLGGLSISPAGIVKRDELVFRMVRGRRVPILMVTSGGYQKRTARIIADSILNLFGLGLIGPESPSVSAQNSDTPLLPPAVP", "experiment": "Probe binding HDAC11 time resolved fluorescence (TRF) assay", "conditions": "Table 2, read-out: HDAC11 IC50 Range", "protocol": "The probe binding HDAC11 assay was performed using a time resolved fluorescence (TRF) assay format. Recombinant N-terminal GST tag full-length human HD AC 11 was expressed and purified from baculovirus in Sf9 insect cells (SignalChem, #H93-30G-1000). […] 4 μL of 2× probe and 2× anti-GST Terbium (Cisbio, #61GSTXLB) was added to assay plates followed by 4 μL of 2×HDAC11.\nData from HD AC 11 Assays were reported as percent inhibition (inh) compared with control wells based on the following equation: % inh=1−((FLU−AveLow)/(AveHigh−AveLow)) where FLU=measured time resolved fluorescence. AveLow=average time resolved fluorescence of no enzyme control (n=32). AveHigh=average time resolved fluorescence of DMSO control (n=32). IC50 values were determined by curve fitting of the standard 4 parameter logistic fitting algorithm included in the Activity Base software package: IDBS XE Designer Model205. Data is fitted using the Levenburg Marquardt algorithm.", "note": "pIC50: −log10 of the molar value. Counter-ions that a name gives are not always drawn."}
{"smiles": "O=C(NO)c1cccc2c1CN(c1nc3c([nH]1)C[C@H](C(F)(F)F)CC3)C2", "note": "(single isomer, unassigned) [Compound 2-1, hydrochloride]", "values": [{"measurement": "pIC50", "result": "> 6.30"}]}
{"smiles": "O=C(NO)c1cccc2c1CN(c1nc3c([nH]1)C[C@@H](C(F)(F)F)CC3)C2", "note": "(single isomer, unassigned) [Compound 2-2, hydrochloride]", "values": [{"measurement": "pIC50", "result": "> 6.30"}]}
{"smiles": "O=C(NO)c1cccc2c1CN(c1nc3c([nH]1)CC(C(F)(F)F)CC3)C2", "note": "(stereo not shown) [Compound 1-1, N-hydroxy-2-(5-(trifluoromethyl)-4,5,6,7-tetrahydro-1H-benzo[d]imidazol-2-yl)isoindoline-4-carboxamide]", "values": [{"measurement": "pIC50", "result": "> 6.30"}]}
{"smiles": "CCCc1cnc(N2Cc3cccc(C(=O)NO)c3C2)[nH]1", "note": "[Compound 1-3, N-hydroxy-2-(5-propyl-1H-imidazol-2-yl)isoindoline-4-carboxamide]", "values": [{"measurement": "pIC50", "result": "< 6.00"}]}
{"smiles": "CC1(C)CCc2nc(N3Cc4cccc(C(=O)NO)c4C3)[nH]c2C1", "note": "[Compound 1-5, 2-(5,5-dimethyl-4,5,6,7-tetrahydro-1H-benzo[d]imidazol-2-yl)-N-hydroxyisoindoline-4-carboxamide hydrochloride]", "values": [{"measurement": "pIC50", "result": "6.00 to 6.30"}]}
{"smiles": "COCCn1c(N2Cc3cccc(C(=O)NO)c3C2)nc2ccccc21", "note": "[Compound 1-7, N-hydroxy-2-(1-(2-methoxyethyl)-1H-benzo[d]imidazol-2-yl)isoindoline-4-carboxamide]", "values": [{"measurement": "pIC50", "result": "< 6.00"}]}
{"smiles": "O=C(NO)c1cccc2c1CN(c1nc3ccncc3[nH]1)C2", "note": "[Compound 3-1, N-hydroxy-2-(3H-imidazo[4,5-c]pyridin-2-yl)isoindoline-4-carboxamide]", "values": [{"measurement": "pIC50", "result": "< 6.00"}]}
{"smiles": "O=C(NO)c1cccc2c1CN(c1nc3cccnc3[nH]1)C2", "note": "[Compound 4-1, N-hydroxy-2-(3H-imidazo[4,5-b]pyridin-2-yl)isoindoline-4-carboxamide]", "values": [{"measurement": "pIC50", "result": "< 6.00"}]}
{"smiles": "O=C(NO)c1cccc2c1CN(c1nc3ncccc3o1)C2", "note": "[Compound 5-1, N-hydroxy-2-(oxazolo[4,5-b]pyridin-2-yl)isoindoline-4-carboxamide hydrochloride]", "values": [{"measurement": "pIC50", "result": "> 6.30"}]}
{"smiles": "O=C(NO)c1cccc2c1CN(c1nc3ccncc3o1)C2", "note": "[Compound 5-2, N-hydroxy-2-(oxazolo[5,4-c]pyridin-2-yl)isoindoline-4-carboxamide]", "values": [{"measurement": "pIC50", "result": "< 6.00"}]}
{"smiles": "O=C(NO)c1cccc2c1CN(c1nc3cnccc3o1)C2", "note": "[Compound 6-1, N-hydroxy-2-(oxazolo[4,5-c]pyridin-2-yl)isoindoline-4-carboxamide hydrochloride]", "values": [{"measurement": "pIC50", "result": "6.00 to 6.30"}]}
{"smiles": "O=C(NO)c1cccc2c1CN(c1nc3cccnc3o1)C2", "note": "[Compound 6-2, N-hydroxy-2-(oxazolo[5,4-b]pyridin-2-yl)isoindoline-4-carboxamide]", "values": [{"measurement": "pIC50", "result": "< 6.00"}]}
{"smiles": "O=C(NO)c1cccc2c1CN(c1ncc3ccccc3n1)C2", "note": "[Compound 7-1, N-hydroxy-2-(quinazolin-2-yl)isoindoline-4-carboxamide]", "values": [{"measurement": "pIC50", "result": "< 6.00"}]}
{"smiles": "O=C(NO)c1cccc2c1CN(c1ccc3ncccc3n1)C2", "note": "[Compound 7-3, N-hydroxy-2-(1,5-naphthyridin-2-yl)isoindoline-4-carboxamide]", "values": [{"measurement": "pIC50", "result": "< 6.00"}]}
{"smiles": "Cc1cnc(N2Cc3cccc(C(=O)NO)c3C2)[nH]1", "note": "[Compound 7-5, N-hydroxy-2-(5-methyl-1H-imidazol-2-yl)isoindoline-4-carboxamide]", "values": [{"measurement": "pIC50", "result": "< 6.00"}]}
{"smiles": "O=C(NO)c1cccc2c1CN(c1cnc3cccnc3c1)C2", "note": "[Compound 8-1, N-hydroxy-2-(1,5-naphthyridin-3-yl)isoindoline-4-carboxamide]", "values": [{"measurement": "pIC50", "result": "< 6.00"}]}
{"smiles": "O=C(NO)c1cccc2c1CN(c1ccc3c(c1)OCCN3)C2", "note": "[Compound 9-1, 2-(3,4-dihydro-2H-benzo[b][1,4]oxazin-7-yl)-N-hydroxyisoindoline-4-carboxamide hydrochloride]", "values": [{"measurement": "pIC50", "result": "6.00 to 6.30"}]}
{"smiles": "O=C(NO)c1cccc2c1CN(c1ccc3c(c1)NCCO3)C2", "note": "[Compound 9-2, 2-(3,4-dihydro-2H-benzo[b][1,4]oxazin-6-yl)-N-hydroxyisoindoline-4-carboxamide]", "values": [{"measurement": "pIC50", "result": "< 6.00"}]}
{"smiles": "O=C(NO)c1cccc2c1CN(c1nc3ncccc3s1)C2", "note": "[Compound 10-1, N-hydroxy-2-(thiazolo[4,5-b]pyridin-2-yl)isoindoline-4-carboxamide]", "values": [{"measurement": "pIC50", "result": "< 6.00"}]}
{"smiles": "O=C(NO)c1cccc2c1CN(c1nc3cc(C(F)(F)F)ccc3s1)C2", "note": "[Compound 11-1, N-hydroxy-2-(5-(trifluoromethyl)benzo[d]thiazol-2-yl)isoindoline-4-carboxamide]", "values": [{"measurement": "pIC50", "result": "> 6.30"}]}
{"smiles": "O=C(NO)c1cccc2c1CN(c1nc3c([nH]1)CNCC3)C2", "note": "[Compound 13-1, N-hydroxy-2-(4,5,6,7-tetrahydro-3H-imidazo[4,5-c]pyridin-2-yl)isoindoline-4-carboxamide]", "values": [{"measurement": "pIC50", "result": "< 6.00"}]}
{"smiles": "CC(=O)N1CCc2nc(N3Cc4cccc(C(=O)NO)c4C3)[nH]c2C1", "note": "[Compound 14-1, 2-(5-acetyl-4,5,6,7-tetrahydro-3H-imidazo[4,5-c]pyridin-2-yl)-N-hydroxyisoindoline-4-carboxamide hydrochloride]", "values": [{"measurement": "pIC50", "result": "< 6.00"}]}
{"smiles": "O=C(NO)c1cccc2c1CN(c1nc3c(o1)CCC(C(F)(F)F)C3)C2", "note": "(stereo not shown) [Compound 16-1, N-hydroxy-2-(5-(trifluoromethyl)-4,5,6,7-tetrahydrobenzo[d]oxazol-2-yl)isoindoline-4-carboxamide]", "values": [{"measurement": "pIC50", "result": "> 6.30"}]}
{"smiles": "CC1(C)c2cccc(C(=O)NO)c2CN1c1nc2ccc(C(F)(F)F)cc2o1", "note": "[Compound 18-3, N-hydroxy-1,1-dimethyl-2-(6-(trifluoromethyl)benzo[d]oxazol-2-yl)isoindoline-4-carboxamide]", "values": [{"measurement": "pIC50", "result": "> 6.30"}]}
{"smiles": "CC1(C)c2cccc(C(=O)NO)c2CN1c1nc2c(o1)CCC(C(F)(F)F)C2", "note": "(stereo not shown) [Compound 19-1, N-hydroxy-1,1-dimethyl-2-[5-(trifluoromethyl)-4,5,6,7-tetrahydro-1,3-benzoxazol-2-yl]-2,3-dihydro-1H-isoindole-4-carboxamide]", "values": [{"measurement": "pIC50", "result": "> 6.30"}]}
{"smiles": "CC1(C)c2cccc(C(=O)NO)c2CN1c1nc2c(o1)CC(C(F)(F)F)CC2", "note": "(stereo not shown) [Compound 19-2, N-hydroxy-1,1-dimethyl-2-(6-(trifluoromethyl)-4,5,6,7-tetrahydrobenzo[d]oxazol-2-yl)isoindoline-4-carboxamide]", "values": [{"measurement": "pIC50", "result": "> 6.30"}]}
{"smiles": "CC1(C)c2cccc(C(=O)NO)c2CN1c1nc2ncccc2s1", "note": "[Compound 20-1, N-hydroxy-1,1-dimethyl-2-(thiazolo[4,5-b]pyridin-2-yl)isoindoline-4-carboxamide]", "values": [{"measurement": "pIC50", "result": "< 6.00"}]}
{"smiles": "CC1(C)c2cccc(C(=O)NO)c2CN1c1nc2cc(C(F)(F)F)ccc2s1", "note": "[Compound 20-2, N-hydroxy-1,1-dimethyl-2-(5-(trifluoromethyl)benzo[d]thiazol-2-yl)isoindoline-4-carboxamide]", "values": [{"measurement": "pIC50", "result": "> 6.30"}]}
{"smiles": "CC1(C)c2cccc(C(=O)NO)c2CN1c1nc2cnccc2o1", "note": "[Compound 21-1, N-hydroxy-1,1-dimethyl-2-(oxazolo[4,5-c]pyridin-2-yl)isoindoline-4-carboxamide]", "values": [{"measurement": "pIC50", "result": "> 6.30"}]}
{"smiles": "CC1(C)c2cccc(C(=O)NO)c2CN1c1nc2ccccc2s1", "note": "[Compound 22-1, 2-(benzo[d]thiazol-2-yl)-N-hydroxy-1,1-dimethylisoindoline-4-carboxamide]", "values": [{"measurement": "pIC50", "result": "> 6.30"}]}
{"smiles": "CC1(C)c2cccc(C(=O)NO)c2CN1c1ccc2ccccc2n1", "note": "[Compound 22-5, N-hydroxy-1,1-dimethyl-2-(quinolin-2-yl)isoindoline-4-carboxamide]", "values": [{"measurement": "pIC50", "result": "> 6.30"}]}
{"smiles": "CC1(C)c2cccc(C(=O)NO)c2CN1c1nc(C(F)(F)F)cs1", "note": "[Compound 22-9, N-hydroxy-1,1-dimethyl-2-(4-(trifluoromethyl)thiazol-2-yl)isoindoline-4-carboxamide]", "values": [{"measurement": "pIC50", "result": "< 6.00"}]}
{"smiles": "CC1(C)c2cccc(C(=O)NO)c2CN1c1ccc2cc(C(F)(F)F)ccc2n1", "note": "[Compound 23-1, N-hydroxy-1,1-dimethyl-2-(6-(trifluoromethyl)quinolin-2-yl)isoindoline-4-carboxamide]", "values": [{"measurement": "pIC50", "result": "> 6.30"}]}
{"smiles": "CC1(C)c2cccc(C(=O)NO)c2CN1c1ccc2ccc(C(F)(F)F)cc2n1", "note": "[Compound 23-2, N-hydroxy-1,1-dimethyl-2-(7-(trifluoromethyl)quinolin-2-yl)isoindoline-4-carboxamide]", "values": [{"measurement": "pIC50", "result": "6.00 to 6.30"}]}
{"smiles": "CC1(C)c2cccc(C(=O)NO)c2CN1c1ccc2nc(C(F)(F)F)ccc2n1", "note": "[Compound 24-1, N-hydroxy-1,1-dimethyl-2-(6-(trifluoromethyl)-1,5-naphthyridin-2-yl)isoindoline-4-carboxamide]", "values": [{"measurement": "pIC50", "result": "> 6.30"}]}
{"smiles": "CC1(C)c2cccc(C(=O)NO)c2CN1c1nc2ccccc2o1", "note": "[Compound 25-1, 2-(benzo[d]oxazol-2-yl)-N-hydroxy-1,1-dimethylisoindoline-4-carboxamide]", "values": [{"measurement": "pIC50", "result": "> 6.30"}]}
{"smiles": "CC1(C)c2cccc(C(=O)NO)c2CN1c1nc2nc(C(F)(F)F)ccc2o1", "note": "[Compound 26-1, N-hydroxy-1,1-dimethyl-2-(5-(trifluoromethyl)oxazolo[4,5-b]pyridin-2-yl)isoindoline-4-carboxamide]", "values": [{"measurement": "pIC50", "result": "> 6.30"}]}
{"smiles": "CC1(C)c2cccc(C(=O)NO)c2CN1c1nc2ncc(C(F)(F)F)cc2o1", "note": "[Compound 26-2, N-hydroxy-1,1-dimethyl-2-(6-(trifluoromethyl)oxazolo[4,5-b]pyridin-2-yl)isoindoline-4-carboxamide]", "values": [{"measurement": "pIC50", "result": "> 6.30"}]}
{"smiles": "CC1(C)c2cccc(C(=O)NO)c2CN1c1ccc(C(F)(F)F)c(C#N)n1", "note": "[Compound 27-1, 2-(6-cyano-5-(trifluoromethyl)pyridin-2-yl)-N-hydroxy-1,1-dimethylisoindoline-4-carboxamide]", "values": [{"measurement": "pIC50", "result": "> 6.30"}]}
{"smiles": "CC1(C)c2cccc(C(=O)NO)c2CN1c1cc(C#N)c(C(F)(F)F)cn1", "note": "[Compound 27-2, 2-(4-cyano-5-(trifluoromethyl)pyridin-2-yl)-N-hydroxy-1,1-dimethylisoindoline-4-carboxamide]", "values": [{"measurement": "pIC50", "result": "> 6.30"}]}
